Source: patent US9242970B2 (ACTELION PHARMACEUTICALS LTD., priority 2010, dated 2016)
Where two headings read alike, the source gives them in different places.

How the values were obtained:
[1] = target: human orexin-1 receptor (Homo sapiens (Human), UniProt O43613); assay: In vitro assay: intracellular calcium measurements (FLIPR), antagonistic activity; assay type: cell-based; conditions: CHO cells, 3 nM orexin-A, marked values are geometric means of n = 2-6, read-out: IC50 OX1
[2] = target: human orexin-2 receptor (Homo sapiens (Human), UniProt O43614); assay: as above; assay type: cell-based; conditions: CHO cells, 3 nM orexin-A, marked values are geometric means of n = 2-6, read-out: IC50 OX2
[3] = compound incubation time of 10 min

human orexin-2 receptor, sequence (O43614 whole entry): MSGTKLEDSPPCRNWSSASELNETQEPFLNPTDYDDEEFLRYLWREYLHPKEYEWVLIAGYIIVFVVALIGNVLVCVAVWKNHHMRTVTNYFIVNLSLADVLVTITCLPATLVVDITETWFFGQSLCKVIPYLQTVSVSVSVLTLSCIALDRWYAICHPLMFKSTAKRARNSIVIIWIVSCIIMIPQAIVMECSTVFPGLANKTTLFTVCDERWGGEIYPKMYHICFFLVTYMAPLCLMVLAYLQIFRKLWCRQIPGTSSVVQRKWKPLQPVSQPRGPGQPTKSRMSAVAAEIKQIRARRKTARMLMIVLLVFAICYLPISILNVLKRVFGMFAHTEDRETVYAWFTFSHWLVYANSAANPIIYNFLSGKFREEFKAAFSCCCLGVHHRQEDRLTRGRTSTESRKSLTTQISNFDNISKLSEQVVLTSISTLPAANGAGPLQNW
human orexin-1 receptor, sequence (O43613 whole entry): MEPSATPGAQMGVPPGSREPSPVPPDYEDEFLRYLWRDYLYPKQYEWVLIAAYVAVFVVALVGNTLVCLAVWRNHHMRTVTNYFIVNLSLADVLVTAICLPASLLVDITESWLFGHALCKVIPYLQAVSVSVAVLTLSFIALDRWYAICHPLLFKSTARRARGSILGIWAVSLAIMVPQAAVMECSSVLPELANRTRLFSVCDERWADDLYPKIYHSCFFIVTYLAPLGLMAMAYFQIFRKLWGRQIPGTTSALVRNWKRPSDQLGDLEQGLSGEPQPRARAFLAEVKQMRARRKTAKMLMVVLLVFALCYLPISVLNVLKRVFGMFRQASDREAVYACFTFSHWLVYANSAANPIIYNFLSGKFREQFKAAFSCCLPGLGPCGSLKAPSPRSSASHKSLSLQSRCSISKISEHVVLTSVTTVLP

SMILES	IC50 ([1]; compound incubation 120 min)	IC50 ([2]; compound incubation 120 min)	IC50 [1, 3]	IC50 [2, 3]
COc1cccc(OC)c1C1CCCCC(=O)N1Cc1cccc(-c2cncs2)c1 (stereo not drawn) [Example 99, 7-(2,6-dimethoxyphenyl)-1-(3-(thiazol-5-yl)benzyl)azepan-2-one]	7 nM	34 nM	–	–
COc1cccc(OC)c1C1CCCCC(=O)N1Cc1cccc(-c2ncc(C)s2)c1 (stereo not drawn) [Example 100, 7-(2,6-dimethoxyphenyl)-1-(3-(5-methylthiazol-2-yl)benzyl)azepan-2-one]	1 nM	3 nM	–	–
COc1cccc(OC)c1C1CCCCC(=O)N1Cc1cccc(-n2nccn2)c1 (stereo not drawn) [Example 101, 1-(3-(2H-1,2,3-triazol-2-yl)benzyl)-7-(2,6-dimethoxyphenyl)azepan-2-one]	3 nM	33 nM	–	–
COc1cccc(OC)c1C1CCCCC(=O)N1Cc1cccc(-c2cscn2)c1 (stereo not drawn) [Example 102, 7-(2,6-dimethoxyphenyl)-1-(3-(thiazol-4-yl)benzyl)azepan-2-one]	6 nM	19 nM	–	–
COc1cccc(OC)c1C1CCCCC(=O)N1Cc1ccnc(-n2cccn2)c1 (stereo not drawn) [Example 103, 1-((2-(1H-pyrazol-1-yl)pyridin-4-yl)methyl)-7-(2,6-dimethoxyphenyl)azepan-2-one]	8 nM	86 nM	–	–
COc1cccc(OC)c1C1CCCCC(=O)N1Cc1cccc(-n2cccn2)n1 (stereo not drawn) [Example 104, 1-((6-(1H-pyrazol-1-yl)pyridin-2-yl)methyl)-7-(2,6-dimethoxyphenyl)azepan-2-one]	38 nM	429 nM	–	–
COc1cccc(OC)c1C1CCCCC(=O)N1Cc1ccc2nc(C)sc2c1 (stereo not drawn) [Example 105, 7-(2,6-dimethoxyphenyl)-1-((2-methylbenzo[d]thiazol-6-yl)methyl)azepan-2-one]	155 nM	258 nM	–	–
COc1cccc(OC)c1C1CCCCC(=O)N1Cc1cccc(-c2ccccn2)c1F (stereo not drawn) [Example 106, 7-(2,6-dimethoxyphenyl)-1-(2-fluoro-3-(pyridin-2-yl)benzyl)azepan-2-one]	14 nM	60 nM	–	–
COc1cccc(OC)c1C1CCCCC(=O)N1Cc1ccc(F)c(-c2ccccn2)c1 (stereo not drawn) [Example 107, 7-(2,6-dimethoxyphenyl)-1-(4-fluoro-3-(pyridin-2-yl)benzyl)azepan-2-one]	4 nM	22 nM	–	–
COc1cc(OC)c(C2CCC(=O)N2Cc2ccc(OC(F)(F)F)cc2)c(OC)c1 (stereo not drawn) [Example 108, 1-(4-(trifluoromethoxy)benzyl)-5-(2,4,6-trimethoxyphenyl)pyrrolidin-2-one]	–	–	1930 nM	271 nM
COc1cccc(OC)c1C1CCC(=O)N1Cc1cnc2ccccc2c1 (stereo not drawn) [Example 109, 5-(2,6-dimethoxyphenyl)-1-(quinolin-3-ylmethyl)pyrrolidin-2-one]	–	–	227 nM	44 nM
COc1cccc(OC)c1C1CCC(=O)N1Cc1ccc2ccccc2n1 (stereo not drawn) [Example 110, 5-(2,6-dimethoxyphenyl)-1-(quinolin-2-ylmethyl)pyrrolidin-2-one]	–	–	409 nM	136 nM
COc1cccc(OC)c1C1CCC(=O)N1Cc1ccc2ccccc2c1 (stereo not drawn) [Example 111, 5-(2,6-dimethoxyphenyl)-1-(naphthalen-2-ylmethyl)pyrrolidin-2-one]	–	–	168 nM	113 nM
COc1cccc(OC)c1C1CCC(=O)N1Cc1cnc(OC(F)F)c(Cl)c1 (stereo not drawn) [Example 112, 1-((5-chloro-6-(difluoromethoxy)pyridin-3-yl)methyl)-5-(2,6-dimethoxyphenyl)pyrrolidin-2-one]	–	–	646 nM	107 nM
COc1cccc(OC)c1C1CCC(=O)N1Cc1cccc(-c2ccccc2)c1 (stereo not drawn) [Example 113, 1-([1,1′-biphenyl]-3-ylmethyl)-5-(2,6-dimethoxyphenyl)pyrrolidin-2-one]	29 nM	34 nM	–	–
COc1cccc(OC)c1C1CCC(=O)N1Cc1ccc(-c2ccccc2)cc1 (stereo not drawn) [Example 114, 1-([1,1′-biphenyl]-4-ylmethyl)-5-(2,6-dimethoxyphenyl)pyrrolidin-2-one]	149 nM	184 nM	–	–
COc1cccc(OC)c1C1CCC(=O)N1Cc1cccc(-c2cccnc2)c1 (stereo not drawn) [Example 115, 5-(2,6-dimethoxyphenyl)-1-(3-(pyridin-3-yl)benzyl)pyrrolidin-2-one]	217 nM	249 nM	–	–
COc1cccc(OC)c1C1CCC(=O)N1Cc1cccc2ccccc12 (stereo not drawn) [Example 116, 5-(2,6-dimethoxyphenyl)-1-(naphthalen-1-ylmethyl)pyrrolidin-2-one]	789 nM	291 nM	–	–
COc1cccc(OC)c1C1CCC(=O)N1Cc1cccc(Oc2ccccc2)c1 (stereo not drawn) [Example 117, 5-(2,6-dimethoxyphenyl)-1-(3-phenoxybenzyl)pyrrolidin-2-one]	211 nM	65 nM	–	–
COc1cccc(OC)c1C1CCC(=O)N1Cc1ccc(Oc2ccccc2)cc1 (stereo not drawn) [Example 118, 5-(2,6-dimethoxyphenyl)-1-(4-phenoxybenzyl)pyrrolidin-2-one]	233 nM	58 nM	–	–

SMILES	IC50 ([1]; compound incubation 120 min)	IC50 ([2]; compound incubation 120 min)	IC50 [1, 3]	IC50 [2, 3]
COc1cccc(OC)c1C1CCC(=O)N1Cc1cccc(-c2ccccn2)c1 (stereo not drawn) [Example 119, 5-(2,6-dimethoxyphenyl)-1-(3-(pyridin-2-yl)benzyl)pyrrolidin-2-one]	57 nM	56 nM	–	–
COc1cccc(OC)c1C1CCC(=O)N1Cc1ccnc(-c2ccccc2)c1 (stereo not drawn) [Example 120, 5-(2,6-dimethoxyphenyl)-1-((2-phenylpyridin-4-yl)methyl)pyrrolidin-2-one]	64 nM	121 nM	–	–
COc1cccc(OC)c1C1CCC(=O)N1Cc1cccc(-c2ccccc2)n1 (stereo not drawn) [Example 121, 5-(2,6-dimethoxyphenyl)-1-((6-phenylpyridin-2-yl)methyl)pyrrolidin-2-one]	183 nM	105 nM	–	–
COc1cccc(OC)c1C1CC(C)C(=O)N1Cc1cccc(-c2ccccc2)c1 (stereo not drawn) [Example 122, 1-([1,1′-biphenyl]-3-ylmethyl)-5-(2,6-dimethoxyphenyl)-3-methylpyrrolidin-2-one]	18 nM	70 nM	–	–
COc1cccc(OC)c1C1CC(C)C(=O)N1Cc1cccc(N2CCCC2)c1 (stereo not drawn) [Example 123, 5-(2,6-dimethoxyphenyl)-3-methyl-1-(3-(pyrrolidin-1-yl)benzyl)pyrrolidin-2-one]	13 nM	74 nM	–	–
COc1cccc(OC)c1C1CCC(=O)N1Cc1cccc(-c2nccs2)c1 (stereo not drawn) [Example 124, 5-(2,6-dimethoxyphenyl)-1-(3-(thiazol-2-yl)benzyl)pyrrolidin-2-one]	23 nM	89 nM	–	–
COc1cccc(OC)c1C1CCC(=O)N1Cc1cccc(-c2csc(C)n2)c1 (stereo not drawn) [Example 125, 5-(2,6-dimethoxyphenyl)-1-(3-(2-methylthiazol-4-yl)benzyl)pyrrolidin-2-one]	11 nM	82 nM	–	–
COc1cccc(OC)c1C1CCC(=O)N1Cc1cccc(-n2cccn2)c1 (stereo not drawn) [Example 126, 1-(3-(1H-pyrazol-1-yl)benzyl)-5-(2,6-dimethoxyphenyl)pyrrolidin-2-one]	165 nM	839 nM	–	–
COc1cccc(OC)c1C1CCC(=O)N1Cc1ccc2oc3ccccc3c2c1 (stereo not drawn) [Example 127, 1-(dibenzo[b,d]furan-2-ylmethyl)-5-(2,6-dimethoxyphenyl)pyrrolidin-2-one]	14 nM	20 nM	–	–
COc1cccc(OC)c1C1CCC(=O)N1Cc1nc2ccccc2s1 (stereo not drawn) [Example 128, 1-(benzo[d]thiazol-2-ylmethyl)-5-(2,6-dimethoxyphenyl)pyrrolidin-2-one]	3880 nM	2050 nM	–	–
COc1cccc(OC)c1C1CCC(=O)N1Cc1cccc(N2CCCCC2)c1 (stereo not drawn) [Example 129, 5-(2,6-dimethoxyphenyl)-1-(3-(piperidin-1-yl)benzyl)pyrrolidin-2-one]	198 nM	858 nM	–	–
COc1cccc(OC)c1C1CCC(=O)N1Cc1cccc(N2CCCCC2)n1 (stereo not drawn) [Example 130, 5-(2,6-dimethoxyphenyl)-1-((6-(piperidin-1-yl)pyridin-2-yl)methyl)pyrrolidin-2-one]	636 nM	690 nM	–	–
COc1cccc(OC)c1C1CC(C)C(=O)N1Cc1ccc2ccccc2c1 (stereo not drawn) [Example 131, 5-(2,6-dimethoxyphenyl)-3-methyl-1-(naphthalen-2-ylmethyl)pyrrolidin-2-one]	27 nM	455 nM	–	–
COc1cccc(OC)c1C1CC(C)C(=O)N1Cc1cccc(-c2nccs2)c1 (stereo not drawn) [Example 132, 5-(2,6-dimethoxyphenyl)-3-methyl-1-(3-(thiazol-2-yl)benzyl)pyrrolidin-2-one]	4 nM	44 nM	–	–
COc1cccc(OC)c1C1CC(C)C(=O)N1Cc1cccc(-c2csc(C)n2)c1 (stereo not drawn) [Example 133, 5-(2,6-dimethoxyphenyl)-3-methyl-1-(3-(2-methylthiazol-4-yl)benzyl)pyrrolidin-2-one]	2 nM	24 nM	–	–
COc1cccc(OC)c1C1CC(C)C(=O)N1Cc1cccc(N2CCCCC2)c1 (stereo not drawn) [Example 134, 5-(2,6-dimethoxyphenyl)-3-methyl-1-(3-(piperidin-1-yl)benzyl)pyrrolidin-2-one]	37 nM	157 nM	–	–
COc1cccc(OC)c1C1CC(C)C(=O)N1Cc1cccc(-n2cccn2)c1 (stereo not drawn) [Example 135, 1-(3-(1H-pyrazol-1-yl)benzyl)-5-(2,6-dimethoxyphenyl)-3-methylpyrrolidin-2-one]	23 nM	264 nM	–	–
COc1cccc(OC)c1C1CCC(=O)N1Cc1cccc(-c2noc(C)n2)c1 (stereo not drawn) [Example 136, 5-(2,6-dimethoxyphenyl)-1-(3-(5-methyl-1,2,4-oxadiazol-3-yl)benzyl)pyrrolidin-2-one]	219 nM	547 nM	–	–
COc1cccc(OC)c1C1CC(C)C(=O)N1Cc1ccc2oc3ccccc3c2c1 (stereo not drawn) [Example 137, 1-(dibenzo[b,d]furan-2-ylmethyl)-5-(2,6-dimethoxyphenyl)-3-methylpyrrolidin-2-one]	2 nM	5 nM	–	–
